{"source": "patent US10656089B2", "about": "“Systems, devices, and methods for time-resolved fluorescent spectroscopy” (Black Light Surgical, Inc., priority 2016, dated 2020)", "tested_on": "NADH levels in ex vivo brain sample (cortex)", "test": "continuous monitoring of NADH in an ex vivo brain sample by time-resolved fluorescence spectroscopy", "details": "rabbit cortex ex vivo", "procedure": "Changes in NADH level were assessed to determine changes in the metabolic status of the brain sample in response to oxygen depletion, stimulation with neuro-protective drugs, and other stimuli. During ATP production in aerobic respiration conditions, NADH is oxidized to NAD+. In low oxygen conditions, for example, in areas of hypoxia or ischemia after a stroke, NADH accumulates in cells and persistent oxygen depletion can lead to cell death and breakdown of NADH. The different NADH states and levels may allow for the assessment of the viability and vulnerability of cells in an ischemic environment. Fluctuations in NADH levels were evaluated by measuring the fluorescence emission from NADH […]. […]\nThe system comprised a Q-switched ND:YaG laser (Teem Photonics PNVM02510) 1804 running at 1 KHz which emitted laser pulse at a wavelength of about 350 nm and a pulse width of about 400 ps full width half maximum (FWHM). […] The probe 1800 comprised a central 600 um fiber 1805 to deliver the excitation light surrounded by twelve 200 um fibers to collect the responsive fluorescence signal. […] One bundle of collection fibers 1806a was coupled to a spectrometer (Ocean Optics, Maya) which monitored the fluorescence spectrum every 100 ms. […]", "data": [{"compound": "C=C(C)[C@H]1Cc2c(ccc3c2O[C@@H]2COc4cc(OC)c(OC)cc4[C@@H]2C3=O)O1", "note": "[rotenone]", "values": [{"measurement": "NADH levels (free and bound NADH fluorescence)", "setting": "50 nM rotenone added to Kreb-Ringer bath after about 30 minutes baseline", "result": "increased NADH levels"}, {"measurement": "NADH fluorescence detected", "setting": "additional rotenone doses of 1 uM and 50 uM added at 10 minute intervals", "result": "further increases in fluorescence detected"}]}]}
